This passage reports IC50 results from patent US20230295182A1, “SPIRO DERIVATIVES OF ALPHA-D-GALACTOPYRANOSIDES” (Idorsia Pharmaceuticals Ltd, priority 2020, published 2023).

The target in one experiment is human Gal-3 (hGal-3) (Homo sapiens (Human), UniProt P17931). The experiment is described as follows: Competitive binding assay: biotinylated hGal-3 to microplate-adsorbed asialofetuin (ASF). The conditions noted are these: Activity on hGal-3; binding to ASF-coated plates, 3 hours at 4° C.; mean values. The method, then:
Evaluation of Compound Inhibitory Activity (IC50)
The inhibitory activity of compounds is determined in competitive binding assays. This spectrophotometric assay measures the binding of biotinylated human Gal-3 (hGal-3) or human Gal-1 (hGal-1), respectively, to a microplate-adsorbed glycoprotein, asialofetuin (ASF) (Proc Natl Acad Sci USA. 2013 Mar. 26; 110(13):5052-7.). Alternatively, and preferably, a human Gal-1 version in which all six cysteines are substituted by serines may be used.
Briefly, compounds are serially diluted in DMSO (working dilutions). ASF-coated 384 well plates are supplemented with 22.8 μL/well of biotinylated hGal-3 or hGal-1 in assay buffer (i.e. 300-1000 ng/mL biotinylated hGal-3 or hGal-1) to which 1.2 µL of compound working dilutions are added and mixed.
Plates are incubated for 3 hours at 4° C., then washed with cold assay buffer (3×50 uL), incubated for 1 hour with 25 μL/well of a streptavidin-peroxidase solution (diluted in assay buffer to 80 ng/mL) at 4° C., followed by further washing steps with assay buffer (3×50 uL). Finally, 25 µL/well of ABTS substrate is added.
The calculated IC50 values may fluctuate depending on the daily assay performance. Fluctuations of this kind are known to those skilled in the art. IC50 values from several measurements are given as mean values.

The target of another experiment is human Gal-1 (hGal-1) (Homo sapiens, UniProt P09382). The experiment is described as follows: Competitive binding assay: biotinylated hGal-1 to microplate-adsorbed asialofetuin (ASF). The following applies: Activities on hGal-1; binding to ASF-coated plates, 3 hours at 4° C.; mean values; read-out: Gal-1 IC50. The procedure:
Evaluation of Compound Inhibitory Activity (IC50) The inhibitory activity of compounds is determined in competitive binding assays. […] Alternatively, and preferably, a human Gal-1 version in which all six cysteines are substituted by serines may be used. Briefly, compounds are serially diluted in DMSO (working dilutions). […] Plates are incubated for 3 hours at 4° C., then washed with cold assay buffer (3×50 uL), incubated for 1 hour with 25 μL/well of a streptavidin-peroxidase solution (diluted in assay buffer to 80 ng/mL) at 4° C., followed by further washing steps with assay buffer (3×50 uL). Finally, 25 µL/well of ABTS substrate is added. […] The calculated IC50 values may fluctuate depending on the daily assay performance. Fluctuations of this kind are known to those skilled in the art. IC50 values from several measurements are given as mean values.

human Gal-3 (hGal-3), sequence (P17931 whole entry): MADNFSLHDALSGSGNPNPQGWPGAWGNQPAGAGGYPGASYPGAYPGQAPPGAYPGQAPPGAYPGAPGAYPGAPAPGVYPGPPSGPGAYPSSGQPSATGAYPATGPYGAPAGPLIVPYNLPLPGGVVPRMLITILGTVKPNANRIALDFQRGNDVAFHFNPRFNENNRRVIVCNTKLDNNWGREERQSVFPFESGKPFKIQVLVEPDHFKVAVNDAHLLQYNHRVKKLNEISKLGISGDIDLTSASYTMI
human Gal-1 (hGal-1), sequence (P09382 2-135 limits assumed): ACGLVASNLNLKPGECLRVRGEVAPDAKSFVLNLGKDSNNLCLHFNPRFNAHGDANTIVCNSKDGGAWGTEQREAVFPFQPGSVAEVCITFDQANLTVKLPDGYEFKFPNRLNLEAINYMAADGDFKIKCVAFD

`CO[C@@H]1[C@@H](n2cc(-c3cc(F)c(F)c(F)c3)nn2)[C@@H](O)[C@@H](CO)O[C@@H]1CC1=NOC2(CCC(NCC(F)(F)F)CC2)C1` (stereo partly drawn) [Example 2.17, (2R,3R,4S,5R,6R)-2-(hydroxymethyl)-5-methoxy-6-((8-((2,2,2-trifluoroethyl)amino)-1-oxa-2-azaspiro[4.5]dec-2-en-3-yl)methyl)-4-(4-(3,4,5-trifluorophenyl)-1H-1,2,3-triazol-1-yl)tetrahydro-2H-pyran-3-ol]: the half-inhibitory concentration (IC50) (commonly the point on the concentration scale where inhibition reaches its midpoint) is 0.21 µM on human Gal-3 (hGal-3) and 1.4 µM on human Gal-1 (hGal-1).
As for `CO[C@@H]1[C@@H](n2cc(-c3cc(F)c(F)c(F)c3)nn2)[C@@H](O)[C@@H](CO)O[C@@H]1CC1=NOC2(CCC(N3CCOCC3)CC2)C1` (stereo partly drawn) [Example 2.19, (2R,3R,4S,5R,6R)-2-(hydroxymethyl)-5-methoxy-6-((8-morpholino-1-oxa-2-azaspiro[4.5]dec-2-en-3-yl)methyl)-4-(4-(3,4,5-trifluorophenyl)-1H-1,2,3-triazol-1-yl)tetrahydro-2H-pyran-3-ol], the IC50 came to 0.39 µM on human Gal-3 (hGal-3) and 1.7 µM at human Gal-1 (hGal-1).
For the compound `CO[C@@H]1[C@@H](n2cc(-c3ccc(Cl)c(F)c3F)nn2)[C@@H](O)[C@@H](CO)O[C@@H]1CC1=NOC2(CCCCC2)C1` [Example 1.22, (2R,3R,4S,5R,6R)-6-((1-oxa-2-azaspiro[4.5]dec-2-en-3-yl)methyl)-4-(4-(4-chloro-2,3-difluorophenyl)-1H-1,2,3-triazol-1-yl)-2-(hydroxymethyl)-5-methoxytetrahydro-2H-pyran-3-ol], the IC50 came out at 0.076 µM on human Gal-3 (hGal-3) and 3.7 µM on human Gal-1 (hGal-1).
As for `CO[C@@H]1[C@@H](n2cc(-c3ccc(F)c(F)c3F)nn2)[C@@H](O)[C@@H](CO)O[C@@H]1CC1=NOC2(CCC(C#N)CC2)C1` (stereo partly drawn) [Example 1.50, 3-(((2R,3R,4S,5R,6R)-5-hydroxy-6-(hydroxymethyl)-3-methoxy-4-(4-(2,3,4-trifluorophenyl)-1H-1,2,3-triazol-1-yl)tetrahydro-2H-pyran-2-yl)methyl)-1-oxa-2-azaspiro[4.5]dec-2-ene-8-carbonitrile], the results for the IC50 on human Gal-3 (hGal-3) and on human Gal-1 (hGal-1) were 0.16 µM and 0.57 µM, respectively.
The like results for `CO[C@@H]1[C@@H](n2cc(-c3cc(F)cc(Cl)c3)nn2)[C@@H](O)[C@@H](CO)O[C@@H]1CC1=NOC2(CCCCC2)C1` [Example 1.19, (2R,3R,4S,5R,6R)-6-((1-oxa-2-azaspiro[4.5]dec-2-en-3-yl)methyl)-4-(4-(3-chloro-5-fluorophenyl)-1H-1,2,3-triazol-1-yl)-2-(hydroxymethyl)-5-methoxytetrahydro-2H-pyran-3-ol] were, in that order, 0.68 µM and 4.2 µM.
For the compound `CO[C@@H]1[C@@H](n2cc(-c3ccc(C)c(F)c3F)nn2)[C@@H](O)[C@@H](CO)O[C@@H]1CC1=NOC2(CCOCC2)C1` [Example 1.36, (2R,3R,4S,5R,6R)-6-((1,8-dioxa-2-azaspiro[4.5]dec-2-en-3-yl)methyl)-4-(4-(2,3-difluoro-4-methylphenyl)-1H-1,2,3-triazol-1-yl)-2-(hydroxymethyl)-5-methoxytetrahydro-2H-pyran-3-ol], the concentration for half-maximal inhibition (IC50) on human Gal-3 (hGal-3) was found to be 0.064 µM; at human Gal-1 (hGal-1), 3.8 µM.
The like results for `CO[C@@H]1[C@@H](n2cc(-c3cc(F)c(F)c(F)c3)nn2)[C@@H](O)[C@@H](CO)O[C@@H]1CC1=NOC2(CCCCCC2)C1` [Example 1.38, (2R,3R,4S,5R,6R)-6-((1-oxa-2-azaspiro[4.6]undec-2-en-3-yl)methyl)-2-(hydroxymethyl)-5-methoxy-4-(4-(3,4,5-trifluorophenyl)-1H-1,2,3-triazol-1-yl)tetrahydro-2H-pyran-3-ol] were, in that order, 0.16 µM and 6.4 µM.
For `CO[C@@H]1[C@@H](n2cc(-c3ccc(C)c(F)c3F)nn2)[C@@H](O)[C@@H](CO)O[C@@H]1CC1=NOC2(CCCN(C(=O)OC(C)(C)C)CC2)C1` (mixture of isomers) [Example 1.75, tert-butyl (RS)-3-(((2R,3R,4S,5R,6R)-4-(4-(2,3-difluoro-4-methylphenyl)-1H-1,2,3-triazol-1-yl)-5-hydroxy-6-(hydroxymethyl)-3-methoxytetrahydro-2H-pyran-2-yl)methyl)-1-oxa-2,8-diazaspiro[4.6]undec-2-ene-8-carboxylate] the same measures were 0.16 µM and 8.2 µM.
The like results for `CO[C@@H]1[C@@H](n2cc(-c3cc(F)c(F)c(F)c3)nn2)[C@@H](O)[C@@H](CO)O[C@@H]1CC1=NO[C@]2(CC[C@H](C#N)CC2)C1` [Example 1.40, (5r,8R)-3-(((2R,3R,4S,5R,6R)-5-hydroxy-6-(hydroxymethyl)-3-methoxy-4-(4-(3,4,5-trifluorophenyl)-1H-1,2,3-triazol-1-yl)tetrahydro-2H-pyran-2-yl)methyl)-1-oxa-2-azaspiro[4.5]dec-2-ene-8-carbonitrile] were, in that order, 0.089 µM and 2 µM.
As to `CO[C@@H]1[C@@H](n2cc(-c3cc(F)c(F)c(F)c3)nn2)[C@@H](O)[C@@H](CO)O[C@@H]1CC1=NOC2(CCCCC2)C1` [Example 1.08, (2R,3R,4S,5R,6R)-6-((1-oxa-2-azaspiro[4.5]dec-2-en-3-yl)methyl)-2-(hydroxymethyl)-5-methoxy-4-(4-(3,4,5-trifluorophenyl)-1H-1,2,3-triazol-1-yl)tetrahydro-2H-pyran-3-ol], the IC50 on human Gal-3 (hGal-3) amounted to 0.24 µM; at human Gal-1 (hGal-1), 1.9 µM.
As to `CO[C@@H]1[C@@H](n2cc(-c3cc(F)c(F)c(F)c3)nn2)[C@@H](O)[C@@H](CO)O[C@@H]1CC1=NO[C@]2(CC[C@@H](NC(C)=O)CC2)C1` [Example 2.05, N-((5s,8S)-3-(((2R,3R,4S,5R,6R)-5-hydroxy-6-(hydroxymethyl)-3-methoxy-4-(4-(3,4,5-trifluorophenyl)-1H-1,2,3-triazol-1-yl)tetrahydro-2H-pyran-2-yl)methyl)-1-oxa-2-azaspiro[4.5]dec-2-en-8-yl)acetamide], the IC50 on human Gal-3 (hGal-3) came to 0.45 µM; on human Gal-1 (hGal-1), 3.6 µM.
For `CO[C@@H]1[C@@H](n2cc(-c3ccc(F)c(F)c3F)nn2)[C@@H](O)[C@@H](CO)O[C@@H]1CC1=NO[C@]2(CC[C@@H](C#N)CC2)C1` [Example 1.58, (5s,8S)-3-(((2R,3R,4S,5R,6R)-5-hydroxy-6-(hydroxymethyl)-3-methoxy-4-(4-(2,3,4-trifluorophenyl)-1H-1,2,3-triazol-1-yl)tetrahydro-2H-pyran-2-yl)methyl)-1-oxa-2-azaspiro[4.5]dec-2-ene-8-carbonitrile] the same measures were 0.11 µM and 0.64 µM.
For the compound `CO[C@@H]1[C@@H](n2cc(-c3ccc(Cl)c(F)c3)nn2)[C@@H](O)[C@@H](CO)O[C@@H]1CC1=NOC2(CCCCC2)C1` [Example 1.12, (2R,3R,4S,5R,6R)-6-((1-oxa-2-azaspiro[4.5]dec-2-en-3-yl)methyl)-4-(4-(4-chloro-3-fluorophenyl)-1H-1,2,3-triazol-1-yl)-2-(hydroxymethyl)-5-methoxytetrahydro-2H-pyran-3-ol], the IC50 on human Gal-3 (hGal-3) amounted to 0.31 µM; at human Gal-1 (hGal-1), 1.1 µM.
Regarding `O=C(O)CO[C@@H]1[C@@H](n2cc(-c3cc(F)c(F)c(F)c3)nn2)[C@@H](O)[C@@H](CO)O[C@@H]1CC1=NOC2(CCCCC2)C1` [Example 2.26, 2-(((2R,3R,4S,5R,6R)-2-((1-oxa-2-azaspiro[4.5]dec-2-en-3-yl)methyl)-5-hydroxy-6-(hydroxymethyl)-4-(4-(3,4,5-trifluorophenyl)-1H-1,2,3-triazol-1-yl)tetrahydro-2H-pyran-3-yl)oxy)acetic acid], the half-inhibitory concentration (IC50) turned out to be 0.09 µM on human Gal-3 (hGal-3) and 3.5 µM at human Gal-1 (hGal-1).
